Data taken from publication PMC9313812, “The Pseudo‐Natural Product Rhonin Targets RHOGDI” (Angewandte Chemie (International Ed. in English), 2022).

Assays:
[1] = target: T1, RHOGDI1-RAC1 interaction (Homo sapiens, UniProt P52565); experiment: Fluorescence polarization: titration of TAMRA-GDP-bound RAC1 with RHOGDI1 in presence of compound; assay type: binding; conditions: Cheng-Prusoff equation using data from Figure S6f
T1 construct: GST; made in house; host or cells: RHOGDI1: E. coli; GerGer-RAC1: insect cells (TNAO38)
T1 sequence (P52565 1-204): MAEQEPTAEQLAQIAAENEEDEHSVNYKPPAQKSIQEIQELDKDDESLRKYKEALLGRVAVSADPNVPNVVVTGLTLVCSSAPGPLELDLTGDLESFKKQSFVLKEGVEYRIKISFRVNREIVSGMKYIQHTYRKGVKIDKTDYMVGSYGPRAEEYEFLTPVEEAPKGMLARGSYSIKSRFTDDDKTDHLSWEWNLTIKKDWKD
Protocol: cilia were stained with an antibody against acetylated tubulin. SMO was marked with an anti-SMO antibody and DAPI was used to stain the nuclei. For quantification of cilia, at least 100 cilia per condition and biological replicate were analyzed for the intensity of anti-acetylated tubulin antibody staining. The results of one representative biological replicate are shown and each data point represents the intensity value of one single cilium. Statistical significance was evaluated using an unpaired t-test with a confidence interval of 95 % (p ≤ n.s.). […]
Label-free quantification (LFQ) intensities were logarithmized (log2) and proteins, which were not three times quantified in at least one of the groups, were filtered off. […]
Fluorescence polarization
The binding of probe 10 to RHOGDI1-3 was confirmed by fluorescence polarization experiments. […] The change in fluorescence polarization was monitored at an excitation / emission wavelengths of 535 nm and 593 nm, respectively. […]
To determine the effect of 7a on the binding of RHOGDI1 to non-prenylated RAC1-GDP, fluorescence polarization measurements were performed by titrating 1 µM TAMRA-GDP-bound RAC1 with increasing concentrations of RHOGDI1 in the presence and absence of 50 µM 7a in buffer containing 30 mM Tris-HCl, pH 7.5, 150 mM NaCl, 5 mM MgCl2, 1% DMSO. […]

[2] = target: T2, RHOGDI1-mediated extraction of RHOA (Homo sapiens, UniProt P52565); experiment: Liposome sedimentation assay: displacement of prenylated GDP-bound RHOA by GST-RHOGDI1; assay type: biochemical; conditions: 50 μM compound
T2 construct: made in house; host or cells: RHOGDI1: E. coli; prenylated RHOA: insect cells (TNAO38)
Protocol: Supplementary Figure S4. Compound 7a impairs RHOGDI1 function. (a) Assay setup for the liposome sedimentation assay. (b) Displacement of prenylated GDP‐bound RAC1 from synthetic liposomes by GST-RHOGDI1 in the presence or absence of 50 μM 7a was measured using liposome floatation assay. Data is representative of three independent experiments.
Liposome-containing phase represented by fluorescent colour as result of 5% fluorescent NDB-PE was analysed by Western blotting. Data are representatives of three independent […]
experiments. (c-d) Displacement of prenylated
GDP‐bound RHO GTPases (RHOA and CDC42) from synthetic liposomes by GST‐RHOGDI1 […]
liposome sedimentation assay. Data is representative of three independent experiments. P: […]
Liposome sedimentation assay
Liposomes were prepared by self-assembly of the lipids (500 μg) containing 20% (w/w) phosphatidylethanolamine, 45% (w/w) phosphatidylcholine, 20% (w/w) phosphatidylserine, 10% (w/w) cholesterol, and 5% (w/w) phosphatidylinositol 4,5-bisphosphate. […] The resulting pellet and supernatant fractions were collected and analyzed by immunoblotting. […]
The resulting samples were centrifuged at 140000 x g for 1 h at 4 °C. The upper liposome‐ containing phase (detected by fluorescent NDB‐PE) was collected and analyzed by […]

SMILES: COC(=O)C1(C(CC(=O)c2cccnc2)c2ccccc2)N=C(c2ccc(Br)cc2)C2C(=O)N(C)C(=O)C21 (centres unmarked) [7l]
- Ki [1]: ~2200 nM

SMILES: COC(=O)C1(C(CC(=O)c2ccccc2)c2ccccc2)N=C(c2ccc(Br)cc2)C2C(=O)N(C)C(=O)C21 (centres unmarked) [7a]
- Inhibition of RHOGDI1-mediated extraction of RHOA (in words) [2]: inhibited
